Legend:
human TLR8 = target: T1, human TLR8 (Homo sapiens, UniProt Q9NR97); experiment: HEK293 SEAP reporter assay, other TLRs (Biological Example 3); assay type: cell-based; conditions: 16 hrs, * = Estimated
T1 construct: host or cells: HEK293
T1 sequence (Q9NR97 27-1041): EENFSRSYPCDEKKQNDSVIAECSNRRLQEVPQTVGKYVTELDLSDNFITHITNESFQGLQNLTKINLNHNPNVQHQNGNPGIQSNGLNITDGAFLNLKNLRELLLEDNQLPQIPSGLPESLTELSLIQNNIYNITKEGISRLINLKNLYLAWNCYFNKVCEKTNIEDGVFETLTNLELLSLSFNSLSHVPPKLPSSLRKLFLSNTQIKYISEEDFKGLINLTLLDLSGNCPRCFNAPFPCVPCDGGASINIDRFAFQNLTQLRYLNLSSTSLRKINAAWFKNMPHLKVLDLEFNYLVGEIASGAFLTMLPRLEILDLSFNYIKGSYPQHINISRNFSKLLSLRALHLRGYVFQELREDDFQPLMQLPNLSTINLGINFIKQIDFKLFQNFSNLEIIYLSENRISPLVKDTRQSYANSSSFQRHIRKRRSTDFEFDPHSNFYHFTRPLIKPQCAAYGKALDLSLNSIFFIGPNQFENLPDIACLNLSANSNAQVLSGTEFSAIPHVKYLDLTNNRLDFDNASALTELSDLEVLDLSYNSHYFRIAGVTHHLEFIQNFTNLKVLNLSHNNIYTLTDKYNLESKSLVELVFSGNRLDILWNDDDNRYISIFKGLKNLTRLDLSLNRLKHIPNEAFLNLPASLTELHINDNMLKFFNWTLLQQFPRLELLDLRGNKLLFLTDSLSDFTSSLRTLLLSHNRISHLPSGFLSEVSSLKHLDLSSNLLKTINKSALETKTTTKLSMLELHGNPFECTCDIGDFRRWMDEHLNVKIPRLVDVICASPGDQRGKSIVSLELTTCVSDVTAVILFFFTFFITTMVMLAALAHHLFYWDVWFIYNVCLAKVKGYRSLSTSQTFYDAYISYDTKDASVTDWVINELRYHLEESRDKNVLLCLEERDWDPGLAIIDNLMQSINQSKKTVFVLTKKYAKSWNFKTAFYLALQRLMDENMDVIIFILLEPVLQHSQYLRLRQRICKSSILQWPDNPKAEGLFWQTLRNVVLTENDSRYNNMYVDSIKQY
Description: (§1) In this example, the activity of the Compound 1 to stimulate different human and mouse TLR pathways was investigated on HEK293 cells transfected with inducible SEAP (secreted embryonic alkaline phosphatase) reporter genes and also expressing different human TLRs (TLR2, TLR3, TLR4, TLR5, TLR7, TLR8, TLRS) or mouse TLRs (TLR2, TLR3, TLR4, TLR5, TLR7, TLR8, TLR13).
(§2) HEK293 reporter cell lines were purchased from Invivogen and cell lines were maintained in manufacture recommended culture medium with required supplemental antibiotics. On the day of assay, the cells were harvested with Accutase and counted by the Vi-CELL Cell Viability Analyzers. Cells were re-suspended in HEK blue detection medium and a total of 10000 cells were seeded in each well of a 384-well flat bottom plate. […] Assay plates were cultured at 37° C. in a CO2 incubator for 16 hrs. HEK-Blue™ Detection medium changes to a purple/blue color in the presence of secreted SEAP, which can be detected by spectrophotometry at 620-655 nm. Data was fitted with non-linear regression analysis, using a log(inhibitor) vs. response-variable slope, 3-parameter fit with GraphPad Prism.

human TLR7 = target: T2, human TLR7 (Homo sapiens, UniProt Q9NYK1); experiment: as above; assay type: cell-based; conditions: 16 hrs, * = Estimated
T2 construct: host or cells: HEK293
T2 sequence (Q9NYK1 27-1049): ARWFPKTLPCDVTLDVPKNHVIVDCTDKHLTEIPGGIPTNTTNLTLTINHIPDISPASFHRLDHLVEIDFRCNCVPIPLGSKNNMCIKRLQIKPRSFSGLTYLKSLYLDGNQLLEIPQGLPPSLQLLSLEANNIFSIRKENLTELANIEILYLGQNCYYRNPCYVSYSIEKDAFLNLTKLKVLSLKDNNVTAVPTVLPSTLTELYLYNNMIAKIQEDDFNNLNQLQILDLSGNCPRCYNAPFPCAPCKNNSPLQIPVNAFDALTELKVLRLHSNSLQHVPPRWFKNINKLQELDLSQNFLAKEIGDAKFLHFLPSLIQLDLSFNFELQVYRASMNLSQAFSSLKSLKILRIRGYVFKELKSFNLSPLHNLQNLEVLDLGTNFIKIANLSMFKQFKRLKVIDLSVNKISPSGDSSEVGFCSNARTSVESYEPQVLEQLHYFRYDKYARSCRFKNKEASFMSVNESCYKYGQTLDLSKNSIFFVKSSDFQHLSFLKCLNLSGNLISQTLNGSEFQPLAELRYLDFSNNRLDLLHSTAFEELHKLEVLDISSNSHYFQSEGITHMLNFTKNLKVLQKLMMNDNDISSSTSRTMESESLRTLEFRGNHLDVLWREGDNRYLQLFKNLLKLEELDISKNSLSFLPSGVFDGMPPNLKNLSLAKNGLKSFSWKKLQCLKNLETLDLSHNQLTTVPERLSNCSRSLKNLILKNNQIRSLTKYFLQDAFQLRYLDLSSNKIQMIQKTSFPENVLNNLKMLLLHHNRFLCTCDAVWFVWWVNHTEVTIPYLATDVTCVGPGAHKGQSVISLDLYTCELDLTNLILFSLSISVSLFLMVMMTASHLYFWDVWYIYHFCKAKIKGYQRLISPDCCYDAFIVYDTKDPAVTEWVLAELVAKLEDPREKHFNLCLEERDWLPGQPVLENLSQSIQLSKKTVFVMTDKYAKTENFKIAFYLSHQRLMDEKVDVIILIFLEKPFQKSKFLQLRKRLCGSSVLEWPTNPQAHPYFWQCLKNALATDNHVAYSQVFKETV
Description: as §1, §2

- EC50 (human TLR8): ~401 nM
- EC50 (human TLR7): 61.4 nM
Structure (SMILES): CCCCn1nc2c(N)nc3ccccc3c2c1Cc1ccc(CN)cc1 [Compound 1, 1-(4-(aminomethyl)benzyl)-2-butyl-2H-pyrazolo[3,4-c]quinolin-4-amine]

Reference: US20220259202A1, “1-(4-(AMINOMETHYL)BENZYL)-2-BUTYL-2H-PYRAZOLO[3,4-C]QUINOLIN-4-AMINE DERIVATIVES AND RELATED COMPOUNDS AS TOLL-LIKE RECEPTOR (TLR) 7/8 AGONISTS, AS WELL AS ANTIBODY DRUG CONJUGATES THEREOF FOR USE IN CANCER THERAPY AND DIAGNOSIS” (SUTRO BIOPHARMA, INC., priority 2019, published 2022)
